# Test results reported in US9546401B2, “Assays and methods for selecting a treatment regimen for a subject with depression” (The General Hospital Corporation, priority 2011, dated 2017).
# Where two headings read alike, the source gives them in different places.
# Test system: MDD patients carrying the indicated biomarkers
# Experimental: Folate levels are classified as either low (<=2.5 ng/ml) or normal; and homocysteine levels as either normal or elevated (>=[…]). The presence or absence of at least one […] allele for the MTHFR gene are entered as a dichotomous variable (present or absent). […] Using folate as an example predicator, the presence or absence of a low serum-folate level along with treatment assignment can be entered in a 2×2, factorial ANOVA, using depression improvement scores (baseline minus endpoint HAM-D-17 scores) as the dependant variable. […] Similar analyses (i.e. separate 2×2 ANOVA's) can be performed substituting the presence of low folate levels for the presence of other predictors as described herein. Similarly, the effect of other predictors can be indicated by the interaction term representing the potential modulating influence of those variables.
# The efficacy effect is determined by measuring the mean change in the HAMD-17 score and HAMD-28 score by the end of Phase I and Phase II, as compared to the baseline.
# [1] = Phase II, BMI < 30 kg/m^2 and HNE-His < median
# [2] = Phase II, BMI < 30 kg/m^2 and SAM/SAH >= median
# [3] = Phase II, BMI >= 30 kg/m^2 and HNE-His >= median
# [4] = Phase II, BMI*treat (interaction of BMI with the treatment)
# [5] = Phase II, MTHFR 677 CC and BMI < 30 kg/m^2
# [6] = Phase II, MTHFR 677 CT or TT and BMI >= 30 kg/m^2
# [7] = Phase II, MTHFR 677 CT or TT and HNE-His >= median
# [8] = Phase II, MTR 2756 AA and BMI < 30 kg/m^2
# [9] = Phase II, MTR 2756 AA and HNE-His < median
# [10] = Phase II, MTR 2756 AA and MTRR 66 AA
# [11] = Phase II, MTR 2756 AA and MTRR 66 AA and SAM/SAH >= median
# [12] = Phase II, MTR 2756 AA and SAM/SAH >= median
# [13] = Phase II, MTR 2756 AG or GG and BMI >= 30 kg/m^2
# [14] = Phase II, MTR 2756 AG or GG and MTRR 66 AG or GG
# [15] = Phase II, MTR 2756 AG or GG and MTRR 66 AG or GG and HNE-His >= median
# [16] = Phase II, MTRR 66 AA and SAM/SAH >= median
# [17] = Phase II, MTRR 66 AG or GG and HNE-His >= median
# [18] = Phase II, SAM/SAH < median and HNE-His >= median
# [19] = Phase II, SAM/SAH >= median and HNE-His < median
# [20] = Pooled phases, 25 =< BMI < 30 kg/m^2
smiles,measurement,setting,value
"CN1c2c(nc(N)[nH]c2=O)NC[C@@H]1CNc1ccc(C(=O)N[C@@H](CCC(=O)O)C(=O)O)cc1 [6(S)-5-MTHF, 6(S)-5-methyltetrahydrofolate]",Effect on change in HAMD-28 score,"Phase II, BMI < 25",−2.300
same,Effect on change in HAMD-17 score,[1],3.667
same,Effect on change in HAMD-28 score,[1],1.833
same,Effect on change in HAMD-17 score,[2],1.500
same,Effect on change in HAMD-28 score,[2],2.500
same,Effect on change in HAMD-17 score,"Phase II, BMI >= 30 kg/m^2",−3.009
same,Effect on change in HAMD-28 score,"Phase II, BMI >= 30 kg/m^2",−3.245
same,Effect on change in HAMD-17 score,[3],−4.233
same,Effect on change in HAMD-28 score,[3],−4.933
same,Effect on change in HAMD-17 score,"Phase II, BMI >= 30 kg/m^2 and SAM/SAH < median",−9.200
same,Effect on change in HAMD-28 score,"Phase II, BMI >= 30 kg/m^2 and SAM/SAH < median = 2.71 (plasma)",−10.350
same,Effect on change in HAMD-17 score,[4],0.113
same,Effect on change in HAMD-28 score,[4],0.082
same,Effect on change in HAMD-17 score,[5],−2.267
same,Effect on change in HAMD-28 score,[5],−3.000
same,Effect on change in HAMD-17 score,"Phase II, MTHFR 677 CC and HNE-His < median",−0.857
same,Effect on change in HAMD-28 score,"Phase II, MTHFR 677 CC and HNE-His < median = 3.28 (plasma)",−0.536
same,Effect on change in HAMD-17 score,[6],−7.333
same,Effect on change in HAMD-28 score,[6],−8.667
same,Effect on change in HAMD-17 score,[7],−7.500
same,Effect on change in HAMD-28 score,[7],−7.500
same,Effect on change in HAMD-17 score,"Phase II, MTR 2756 AA",−0.427
same,Effect on change in HAMD-28 score,"Phase II, MTR 2756 AA",−0.446
same,Effect on change in HAMD-17 score,[8],1.167
same,Effect on change in HAMD-28 score,[8],0.917
same,Effect on change in HAMD-17 score,[9],0.300
same,Effect on change in HAMD-28 score,[9],−0.125
same,Effect on change in HAMD-17 score,[10],−8.000
same,Effect on change in HAMD-28 score,[10],−8.000
same,Effect on change in HAMD-17 score,"Phase II, MTR 2756 AA and MTRR 66 AA and HNE-His < median",−8.667
same,Effect on change in HAMD-28 score,"Phase II, MTR 2756 AA and MTRR 66 AA and HNE-His < median = 3.28 (plasma)",−9.000
same,Effect on change in HAMD-17 score,[11],−7.000
same,Effect on change in HAMD-28 score,[11],−7.500
same,Effect on change in HAMD-17 score,[12],1.971
same,Effect on change in HAMD-28 score,[12],2.000
same,Effect on change in HAMD-17 score,[13],−12.167
same,Effect on change in HAMD-28 score,[13],−13.000
same,Effect on change in HAMD-17 score,"Phase II, MTR 2756 AG or GG and HNE-His >= median",−8.417
same,Effect on change in HAMD-28 score,"Phase II, MTR 2756 AG or GG and HNE-His >= median = 3.28 (plasma)",−9.500
same,Effect on change in HAMD-17 score,[14],−4.667
same,Effect on change in HAMD-28 score,[14],−6.583
same,Effect on change in HAMD-17 score,[15],−11.000
same,Effect on change in HAMD-28 score,[15],−12.000
same,Effect on change in HAMD-17 score,"Phase II, MTR 2756 AG or GG and MTRR 66 AG or GG and SAM/SAH < median",−6.500
same,Effect on change in HAMD-28 score,"Phase II, MTR 2756 AG or GG and MTRR 66 AG or GG and SAM/SAH < median = 2.71 (plasma)",−10.500
same,Effect on change in HAMD-17 score,"Phase II, MTR 2756 AG or GG and SAM/SAH < median",−2.500
same,Effect on change in HAMD-28 score,"Phase II, MTR 2756 AG or GG and SAM/SAH < median = 2.71 (plasma)",−7.500
same,Effect on change in HAMD-17 score,"Phase II, MTR 2756 AG/GG",−3.600
same,Effect on change in HAMD-28 score,"Phase II, MTR 2756 AG/GG",−5.300
same,Effect on change in HAMD-17 score,"Phase II, MTRR 66 AA and HNE-His < median",−1.667
same,Effect on change in HAMD-28 score,"Phase II, MTRR 66 AA and HNE-His < median = 3.28 (plasma)",−2.000
same,Effect on change in HAMD-17 score,[16],−3.000
same,Effect on change in HAMD-28 score,[16],−3.333
same,Effect on change in HAMD-17 score,[17],−3.500
same,Effect on change in HAMD-28 score,[17],−4.071
same,Effect on change in HAMD-17 score,"Phase II, MTRR 66 AG or GG and SAM/SAH < median",−6.190
same,Effect on change in HAMD-28 score,"Phase II, MTRR 66 AG or GG and SAM/SAH < median = 2.71 (plasma)",−7.381
same,Effect on change in HAMD-17 score,[18],−9.000
same,Effect on change in HAMD-28 score,[18],−12.000
same,Effect on change in HAMD-17 score,[19],4.000
same,Effect on change in HAMD-28 score,[19],4.500
same,Effect on change in HAMD-28 score,"Phase II, SAM/SAH*treat, first line under HAMD28",1.483
same,Effect on change in HAMD-17 score,"Phase II, baseHAMD-17*treat (interaction of base HAMD-17 with the treatment)",−0.249
same,Effect on change in HAMD-17 score,[20],3.331
same,Effect on change in HAMD-28 score,[20],2.054
same,Effect on change in HAMD-17 score,"Pooled phases, BMI < 25",−1.248
